Measured values reported in patent publication US20250205177A1, “HONEYBEE ANTIDOTE COMPOSITION” (priority 2023, published 2025).

Tests used:
[1] = test system: honeybees (Apis mellifera) chronically exposed to carbaryl; test: Long-term indoor feeding with chronic oral exposure to carbaryl; type: in vivo; conditions: 100 ppm curcumin; for mortality rate of honeybees: 10 days
From the text: FIG. 4 is a graph of a Kaplan-Meier survival curve for test honeybees (Apis mellifera) chronically exposed to 2.5 and 5 ppm of carbaryl through oral exposure.
FIGS. 5A and 5B show graphs of the mortality rate of honeybees for 10 days after being chronically exposed to 2.5 ppm (5A) and 5 ppm (5B) of carbaryl.

[2] = test system: foragers (field bees) poisoned by carbaryl; test: Curcumin feeding of forager (field) bees topically poisoned by carbaryl; type: in vivo, honeybees; conditions: indoor feeding
Method: (§1) […] These experiments were performed separately on newly emerged honeybees and foragers. While 0.063 ug of an insecticide was administered to the chest of each newly emerged honeybee, 0.11 ug of the insecticide was applied to each forager bee. The intoxicated honeybees were exposed to carbaryl and then fed supplementary food. While the control group consumed only sugar syrup, the experimental group consumed supplementary food containing curcumin. All honeybee groups were fed for 48 hours under controlled laboratory conditions.

[3] = test system: honeybee colonies used for melon pollination; test: Field experiment in melon greenhouses: colony strength factors; type: in vivo, honeybees
Method: The impact observed when adding 100 ppm of curcumin to greenhouses for growing melons was assessed. Thirty greenhouses owned by three farmers were used in this study. While one group of honeybees was given a solution supplemented with 100 ppm of curcumin (CU100), the control hives were given only 50% sugar syrup. Colony strength factors were measured every 10 days.

[4] = test system: newly emerged honeybees (nurse bees) poisoned by carbaryl; test: Curcumin feeding of newly emerged (nurse) honeybees topically poisoned by carbaryl; type: in vivo; conditions: for mortality rate: nurse bees, indoor feeding
Method: as §1

[5] = test system: detoxification enzymes (oxidases) of honeybees; test: Gene expression / activity of detoxification enzymes 24 hours after carbaryl exposure; type: in vivo; conditions: 200 ppm curcumin
Method: FIGS. 8 and 9 show graphs for explaining gene expression analysis of detoxification enzymes in SU (50% sugar syrup), CU (50% sugar syrup +200 ppm of curcumin), and the control group (ACET, exposed to only 2 ul of acetone and given sugar), 24 hours after being exposed to carbaryl.

[6] = 100 ppm curcumin, melon greenhouses at Seongju, long-term

COc1cc(/C=C/C(=O)CC(=O)/C=C/c2ccc(O)c(OC)c2)ccc1O [curcumin]
survival rate of honeybees in exposure experiments to carbaryl ([1]; Kaplan-Meier, 2.5 and 5 ppm carbaryl oral): highest
mortality rate of honeybees ([1]; chronic exposure to 2.5 ppm carbaryl, control 38%): 21%
mortality rate of honeybees ([1]; chronic exposure to 5 ppm carbaryl, control 78%): 55%
mortality rate ([2]; 50 ppm curcumin, reduced from 35): 24
mortality rate ([2]; 90 ppm curcumin, from 35): 24
mortality rate ([2]; 100 ppm curcumin, reduced from 35): 18
mortality rate ([2]; 110 ppm curcumin, from 35): 24
rate of hive weight reduction ([3]; 100 ppm curcumin compared with only sucrose solution): lower
number of both adult and larval honeybees [3, 6]: tended to increase
weight of honey storage (honey) [3, 6]: no change
activities of honeybees in outdoor experiments ([3]; group treated with 100 ppm curcumin): excellent
mortality rate of nurse bees compared with control (in words) ([4]; curcumin at varying concentrations after carbaryl exposure): noticeable reduction
mortality rate ([4]; 50 ppm curcumin, reduced from 80): 50
mortality rate ([4]; 90 ppm curcumin, from 80): 33
mortality rate ([4]; 100 ppm curcumin, reduced from 80): 24
mortality rate ([4]; 110 ppm curcumin, from 80): 34
activity of the detoxification enzymes [5]: even higher level
